From patent publication US8580852B2, “2-oxamide inhibitors of phospholipase A2 activity and cellular arachidonate release based on dipeptides and pseudopeptides” (The Regents of the University of California, priority 2009, dated 2013)
Several values for one entry are separate records, joined by “and”; a condition that tells them apart may be missing. Equal values may be shown once.

Each compound was assayed against T1, GVIA iPLA2 (Homo sapiens, UniProt O60733) (assay: In vitro PLA2 mixed micellar assay (modified Dole assay), GVIA iPLA2). Conditions: at 0.091 mole fraction of inhibitor, n = 3.
T1 sequence (O60733 1-806): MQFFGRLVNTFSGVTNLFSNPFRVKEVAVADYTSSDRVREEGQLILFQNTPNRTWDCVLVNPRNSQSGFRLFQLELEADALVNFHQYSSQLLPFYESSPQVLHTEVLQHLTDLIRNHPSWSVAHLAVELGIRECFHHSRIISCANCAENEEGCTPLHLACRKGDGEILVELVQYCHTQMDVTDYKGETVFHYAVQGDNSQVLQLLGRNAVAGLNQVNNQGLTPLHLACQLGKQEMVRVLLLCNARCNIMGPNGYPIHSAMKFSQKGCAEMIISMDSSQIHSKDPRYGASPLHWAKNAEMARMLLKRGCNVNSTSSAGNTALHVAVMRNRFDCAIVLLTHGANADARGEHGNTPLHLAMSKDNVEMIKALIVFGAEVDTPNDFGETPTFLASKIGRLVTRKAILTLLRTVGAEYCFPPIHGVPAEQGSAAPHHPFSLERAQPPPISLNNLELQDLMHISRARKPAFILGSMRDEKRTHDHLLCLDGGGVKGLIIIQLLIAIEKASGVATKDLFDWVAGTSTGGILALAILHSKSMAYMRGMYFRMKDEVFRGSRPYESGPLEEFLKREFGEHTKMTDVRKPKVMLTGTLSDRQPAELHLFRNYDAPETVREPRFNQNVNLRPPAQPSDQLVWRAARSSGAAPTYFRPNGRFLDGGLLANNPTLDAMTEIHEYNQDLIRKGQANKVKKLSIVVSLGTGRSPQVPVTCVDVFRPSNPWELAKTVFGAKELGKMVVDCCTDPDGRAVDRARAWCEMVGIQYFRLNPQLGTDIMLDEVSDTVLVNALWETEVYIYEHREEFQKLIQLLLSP
Assay type: biochemical
Protocol: FIG. 3 illustrates the dose-response curves for 2-oxoamide inhibitors of GVIA iPLA2. Inhibition of the activity of human GVIA iPLA2 by inhibitors (a) 8a and (b) 13 was tested on mixed-micelles containing 100 μM PAPC and 400 μM Triton X-100. Inhibition curves were generated by Graphpad Prism using a non-linear regression (one-site binding model—hyperbola) to calculate the reported XI(50) values.
All the inhibitors synthesized in this work were tested for inhibition of GIVA cPLA2, GVIA iPLA2 and GV sPLA2 using mixed micellar assays. Details for the assays have been published previously. The results of the inhibition are presented in Table 1 using either percent inhibition or XI(50) values. Initially, the percent inhibition of each PLA2 at 0.091 mole fraction of inhibitor was determined. XI(50) values were estimated when the percent inhibition was higher than 90%. The XI(50) is the mole fraction of the inhibitor in the total substrate interface required to inhibit the enzyme by 50%. Data for the reference 2-oxoamide inhibitors AX006 and AX048 are included in Table 1 for comparison.
Phospholipase A2 activity was determined using the previously described modified Dole assay with buffer and substrate conditions optimized for each enzyme as described previously: (i) GIVA cPLA2 substrate mixed-micelles were composed of 400 μM Triton X-100, 97 μM PAPC, 1.8 μM ^14C-labeled PAPC, and 3 μM PIP2 in buffer containing 100 mM HEPES pH 7.5, 90 μM CaCl2, 2 mM DTT and 0.1 mg/ml BSA; (ii) GVI iPLA2 substrate mixed-micelles were composed of either (a) 400 μM Triton X-100, 99 μM DPPC, and 1.5 μM ^14C-labeled DPPC in buffer containing 200 mM HEPES pH 7.0, 1 mM ATP, 2 mM DTT and 0.1 mg/ml BSA or (b) 400 μM Triton X-100, 98.3 μM PAPC, and 1.7 μM ^14C-labeled PAPC in buffer containing 100 mM HEPES pH 7.5, 2 mM ATP and 4 mM DTT; and (iii) GV sPLA2 substrate mixed-micelles were composed of 400 μM Triton X-100, 99 μM DPPC, and 1.5 μM ^14C-labeled DPPC in buffer containing 50 mM Tris pH 8.0 and 5 mM CaCl2.
Initial screening of compounds at 0.091 mole fraction inhibitor in mixed-micelles was carried out. Compounds displaying 25% or less inhibition had no inhibitory affect (designated N.D.). The average percent inhibition (and standard error, n=3) for compounds displaying more than 25% and less than 90% enzyme inhibition is reported herein. If the percent inhibition was greater than 90%, then its XI(50) was determined by plotting percent inhibition vs. inhibitor molar fraction (7 points; typically 0.005 to 0.091 mole fraction). Inhibition curves were modeled in Graphpad Prism using either a linear (x, y intercept=0) or non-linear regression (one-site binding model—hyperbola, BMAX=100) to calculate the reported XI(50) and associated error values.

Structure (SMILES)	GVIA iPLA2 % inhibition
CCCCCCCCCCCCCCC(=O)C(=O)N[C@H](C(=O)NCC(=O)OC)C(C)C [Compound 4b, (S)-Methyl-2-(3-methyl-2-(2-oxohexadecanamido)butanamido)-acetate]	N.D.^a (N.D. signifies compounds with less than 25% inhibition (or no detectable inhibition).)
CCCCCCCCCCCCCCC(=O)C(=O)N[C@@H](CCCC)C(=O)NCC(=O)O [Compound 9a, (S)-2-(2-(2-Oxohexadecanamido)hexanamido)acetic Acid]	N.D.^a (N.D. signifies compounds with less than 25% inhibition (or no detectable inhibition).)
CCCCCCCCCCCCCCC(=O)C(=O)N[C@H](C(=O)NCC(=O)O)C(C)C [Compound 9b, (S)-2-(3-Methyl-2-(2-oxohexadecanamido)butanamido)acetic Acid]	N.D.^a (N.D. signifies compounds with less than 25% inhibition (or no detectable inhibition).)
CCCCCCCCCCCCCCC(=O)C(=O)N[C@@H](CCCC)COCC(=O)OC(C)(C)C [Compound 17, (S)-tert-Butyl 2-(2-(2-oxohexadecanamido)hexyloxy)acetate]	81%
CCCCCCCCCCCCCCC(=O)C(=O)N[C@@H](CCCC)COCC(=O)O [Compound 18, (S)-2-(2-(2-oxohexadecanainido)hexyloxy)acetic Acid]	N.D.^a (N.D. signifies compounds with less than 25% inhibition (or no detectable inhibition).)

Same assay, conditions: mixed micelles; mole fraction of inhibitor in total substrate interface required to inhibit the enzyme by 50%

Structure (SMILES)	GVIA iPLA2 X1(50)
CCCCCCCCCCCCCCC(=O)C(=O)N[C@@H](CCCC)C(=O)NCC(=O)OC [Compound 4a, (S)-Methyl 2-(2-(2-oxohexadecanamido)hexanamido)acetate]	0.045 ± 0.018 mole fraction
CCCCCCCCCCCCCCC(=O)C(=O)N[C@@H](CCCC)C(=O)NCC(=O)OCC [Compound 4c, (S)-Ethyl 2-(2-(2-oxohexadecanamido)hexanamido)acetate]	0.020 mole fraction and 0.020 ± 0.002 mole fraction
CCCCCCCCCCCCCCC(=O)C(=O)N[C@@H](CCCC)C(=O)NCC(=O)OC(C)(C)C [Compound 8a, (S)-tert-Butyl 2-(2-(2-oxohexadecanamido)hexanamido)acetate]	0.011 mole fraction and 0.011 ± 0.001 mole fraction
CCCCCCCCCCCCCCC(=O)C(=O)N[C@H](C(=O)NCC(=O)OC(C)(C)C)C(C)C [Compound 8b, (S)-tert-Butyl-2-(3-methyl-2-(2-oxohexadecanamido)butanamido)-acetate]	0.044 ± 0.025 mole fraction
CCCCCCCCCCCCCCC(=O)C(=O)N[C@@H](CCCC)COCC(=O)OCC [Compound 13, (S)-Ethyl 2-(2-(2-oxohexadecanamido)hexyloxy)acetate]	0.017 mole fraction and 0.017 ± 0.002 mole fraction
